# PubChem BioAssay AID1259407 (Chemical Carcinogenesis Research Information System (CCRIS), 2018)
# The source made the active and inactive calls. How the calls were made is not given here.
# Test system: CCRIS mutagenicity, Ames/micronucleus/aberration tests
# Assay: CCRIS mutagenicity studies
# [1] = Test System: AMES SALMONELLA TYPHIMURIUM, Strain/Indicator: TA97, Metabolic Activation: NONE, Method: STANDARD PLATE
# [2] = Test System: AMES SALMONELLA TYPHIMURIUM, Strain/Indicator: TA98, Metabolic Activation: NONE, Method: STANDARD PLATE
# [3] = Test System: AMES SALMONELLA TYPHIMURIUM, Strain/Indicator: TA98, Metabolic Activation: RAT, LIVER, S-9, AROCLOR 1254, Method: STANDARD PLATE
# [4] = Test System: AMES SALMONELLA TYPHIMURIUM, Strain/Indicator: TA100, Metabolic Activation: NONE, Method: STANDARD PLATE
# [5] = Test System: AMES SALMONELLA TYPHIMURIUM, Strain/Indicator: TA1537, Metabolic Activation: RAT, LIVER, S-9, AROCLOR 1254, Method: STANDARD PLATE
# [6] = Test System: AMES SALMONELLA TYPHIMURIUM, Strain/Indicator: TA1538, Metabolic Activation: RAT, LIVER, S-9, AROCLOR 1254, Method: STANDARD PLATE
# [7] = Test System: AMES SALMONELLA TYPHIMURIUM, Strain/Indicator: TA100, Metabolic Activation: RAT, LIVER, S-9, AROCLOR 1254, Method: STANDARD PLATE
# [8] = Test System: AMES SALMONELLA TYPHIMURIUM, Strain/Indicator: TA104, Metabolic Activation: NONE, Method: STANDARD PLATE
# [9] = Test System: AMES SALMONELLA TYPHIMURIUM, Strain/Indicator: TA1535, Metabolic Activation: NONE, Method: STANDARD PLATE
# [10] = Test System: AMES SALMONELLA TYPHIMURIUM, Strain/Indicator: TA1535, Metabolic Activation: RAT, LIVER, S-9, AROCLOR 1254, Method: STANDARD PLATE
# [11] = Test System: AMES SALMONELLA TYPHIMURIUM, Strain/Indicator: TA1537, Metabolic Activation: NONE, Method: STANDARD PLATE
# [12] = Test System: AMES SALMONELLA TYPHIMURIUM, Strain/Indicator: TA1538, Metabolic Activation: NONE, Method: STANDARD PLATE
smiles,measurement,setting,value
c1cc2ccc3ccc4ccc5ccc6ccc1c1c2c3c4c5c61,mutagenic call,[1],inactive; negative
same,mutagenic call,"Test System: AMES SALMONELLA TYPHIMURIUM, Strain/Indicator: TA97, Metabolic Activation: RAT, LIVER, S-9, PCB, Method: STANDARD PLATE",active; positive
same,mutagenic call,[2],inactive; negative
same,mutagenic call,"Test System: AMES SALMONELLA TYPHIMURIUM, Strain/Indicator: TA98, Metabolic Activation: RAT, LIVER, S-9, AROCLOR 1254, Method: FLUCTUATION",active; positive
same,mutagenic call,[3],active; positive
same,mutagenic call,"Test System: AMES SALMONELLA TYPHIMURIUM, Strain/Indicator: TA98, Metabolic Activation: RAT, LIVER, S-9, PCB, Method: STANDARD PLATE",active; positive
same,mutagenic call,[4],inactive; negative
same,mutagenic call,"Test System: AMES SALMONELLA TYPHIMURIUM, Strain/Indicator: TA100, Metabolic Activation: RAT, LIVER, S-9, PCB, Method: STANDARD PLATE",inactive; negative
same,mutagenic call,[5],active; positive
same,mutagenic call,[6],active; positive
ClCC(Cl)(Cl)Cl,mutagenic call,"End Point: IN VITRO CHROMOSOMAL ABERRATIONS, Test System: CHINESE HAMSTER LUNG FIBROBLAST CELLS (CHL/IU), Metabolic Activation: RAT, LIVER, S-9, PHENOBARBITAL AND 5,6-BENZOFLAVONE",active; positive (ploidy)
same,mutagenic call,"End Point: IN VITRO CHROMOSOMAL ABERRATIONS, Test System: CHINESE HAMSTER OVARY CELLS, Metabolic Activation: NONE",inactive; negative; precipitation occurred at all doses
same,mutagenic call,"End Point: IN VITRO CHROMOSOMAL ABERRATIONS, Test System: CHINESE HAMSTER OVARY CELLS, Metabolic Activation: RAT, LIVER, S-9, AROCLOR 1254",inactive; negative; precipitation occurred at all doses
same,mutagenic call,[1],inactive; negative
same,mutagenic call,"Test System: AMES SALMONELLA TYPHIMURIUM, Strain/Indicator: TA97, Metabolic Activation: RAT, LIVER, S-9, AROCLOR 1254, Method: STANDARD PLATE",active; positive
same,mutagenic call,[2],active; positive
same,mutagenic call,[3],active; positive
same,mutagenic call,[4],active; positive
same,mutagenic call,[7],active; positive
same,mutagenic call,[8],inactive; negative
same,mutagenic call,"Test System: AMES SALMONELLA TYPHIMURIUM, Strain/Indicator: TA104, Metabolic Activation: RAT, LIVER, S-9, AROCLOR 1254, Method: STANDARD PLATE",active; positive
NC(=O)c1ccccc1C(N)=O,mutagenic call,"Test System: AMES SALMONELLA TYPHIMURIUM, Strain/Indicator: TA98, Metabolic Activation: HAMSTER, LIVER, S-9, AROCLOR 1254 (10%), Method: PREINCUBATION",inactive; negative
same,mutagenic call,"Test System: AMES SALMONELLA TYPHIMURIUM, Strain/Indicator: TA98, Metabolic Activation: NONE, Method: PREINCUBATION",inactive; negative
same,mutagenic call,"Test System: AMES SALMONELLA TYPHIMURIUM, Strain/Indicator: TA98, Metabolic Activation: RAT, LIVER, S-9, AROCLOR 1254 (10%), Method: PREINCUBATION",inactive; negative
same,mutagenic call,"Test System: AMES SALMONELLA TYPHIMURIUM, Strain/Indicator: TA100, Metabolic Activation: HAMSTER, LIVER, S-9, AROCLOR 1254 (10%), Method: PREINCUBATION",inactive; negative
same,mutagenic call,"Test System: AMES SALMONELLA TYPHIMURIUM, Strain/Indicator: TA100, Metabolic Activation: NONE, Method: PREINCUBATION",inactive; negative
same,mutagenic call,"Test System: AMES SALMONELLA TYPHIMURIUM, Strain/Indicator: TA100, Metabolic Activation: RAT, LIVER, S-9, AROCLOR 1254 (10%), Method: PREINCUBATION",inactive; negative
same,mutagenic call,"Test System: AMES SALMONELLA TYPHIMURIUM, Strain/Indicator: TA1535, Metabolic Activation: HAMSTER, LIVER, S-9, AROCLOR 1254 (10%), Method: PREINCUBATION",inactive; negative
same,mutagenic call,"Test System: AMES SALMONELLA TYPHIMURIUM, Strain/Indicator: TA1535, Metabolic Activation: NONE, Method: PREINCUBATION",inactive; negative
same,mutagenic call,"Test System: AMES SALMONELLA TYPHIMURIUM, Strain/Indicator: TA1535, Metabolic Activation: RAT, LIVER, S-9, AROCLOR 1254 (10%), Method: PREINCUBATION",inactive; negative
same,mutagenic call,"Test System: AMES SALMONELLA TYPHIMURIUM, Strain/Indicator: TA1537, Metabolic Activation: HAMSTER, LIVER, S-9, AROCLOR 1254 (10%), Method: PREINCUBATION",inactive; negative
same,mutagenic call,"Test System: AMES SALMONELLA TYPHIMURIUM, Strain/Indicator: TA1537, Metabolic Activation: NONE, Method: PREINCUBATION",inactive; negative
same,mutagenic call,"Test System: AMES SALMONELLA TYPHIMURIUM, Strain/Indicator: TA1537, Metabolic Activation: RAT, LIVER, S-9, AROCLOR 1254 (10%), Method: PREINCUBATION",inactive; negative
Nc1nc2c(s1)CC[C@@H]1NCCC[C@@H]21,mutagenic call,[6],inactive; negative
O=C1NC(=O)[C@H]2[C@H]3C=C[C@@H]([C@@H]12)[C@@H]1[C@H]2C(=O)NC(=O)[C@H]2[C@H]31,mutagenic call,"Test System: MOUSE LYMPHOMA, Strain/Indicator: L5178Y (TK+/TK-), Metabolic Activation: NONE, Method: SUSPENSION/PLATE",active; positive. reevaluation of results: inconclusive
same,mutagenic call,"Test System: MOUSE LYMPHOMA, Strain/Indicator: L5178Y (TK+/TK-), Metabolic Activation: RAT, LIVER, S-9, AROCLOR 1254, Method: SUSPENSION/PLATE",active; positive. reevaluation of results: positive
O=S(=O)(O)CNc1ccc(N=Nc2cccnc2)cc1,mutagenic call,[2],inactive; negative
same,mutagenic call,[3],inactive; negative
same,mutagenic call,[4],inactive; negative
same,mutagenic call,[7],inactive; negative
same,mutagenic call,[9],inactive; negative
same,mutagenic call,[10],inactive; negative
same,mutagenic call,[11],inactive; negative
same,mutagenic call,[5],inactive; negative
same,mutagenic call,[12],inactive; negative
same,mutagenic call,[6],inactive; negative
COc1cc(N)cc(OC)c1N,mutagenic call,[2],inactive; negative
same,mutagenic call,[3],inactive; negative
same,mutagenic call,[4],inactive; negative
same,mutagenic call,[7],inactive; negative
same,mutagenic call,[9],inactive; negative
same,mutagenic call,[10],inactive; negative
same,mutagenic call,[11],inactive; negative
same,mutagenic call,[5],inactive; negative
same,mutagenic call,[12],inactive; negative
same,mutagenic call,[6],inactive; negative
C#CCOCCn1cc[n+](C)c1/C=N/O,mutagenic call,[1],inactive; negative
same,mutagenic call,"Test System: AMES SALMONELLA TYPHIMURIUM, Strain/Indicator: TA97, Metabolic Activation: S-9, Method: STANDARD PLATE",inactive; negative
same,mutagenic call,[4],inactive; negative
same,mutagenic call,"Test System: AMES SALMONELLA TYPHIMURIUM, Strain/Indicator: TA100, Metabolic Activation: S-9, Method: STANDARD PLATE",inactive; negative
same,mutagenic call,[8],inactive; negative
same,mutagenic call,"Test System: AMES SALMONELLA TYPHIMURIUM, Strain/Indicator: TA104, Metabolic Activation: S-9, Method: STANDARD PLATE",inactive; negative
same,mutagenic call,[11],inactive; negative
same,mutagenic call,"Test System: AMES SALMONELLA TYPHIMURIUM, Strain/Indicator: TA1537, Metabolic Activation: S-9, Method: STANDARD PLATE",inactive; negative
same,mutagenic call,[12],inactive; negative
same,mutagenic call,"Test System: AMES SALMONELLA TYPHIMURIUM, Strain/Indicator: TA1538, Metabolic Activation: S-9, Method: STANDARD PLATE",inactive; negative
